In brackets after ≈: the same amount, converted by molar mass.
How the values were obtained:
[1] = Metabolic stability in human liver microsomes assessed as parent compound remaining at 1 uM preincubated for 5 mins followed by NADPH addition measured after 30 mins by LC-MS/MS analysis; type: ADME, microsome; settings: read-out: Stability
HepG2 = assay: Cytotoxicity against human HepG2 cells assessed as reduction in cell viability after 24 hrs by MTT assay; type: cell-based; settings: HepG2, 24 h
[2] = Kinetic solubility of the compound in phosphate buffer at pH 7.4 at 0.0098 to 10 mM by turbidometric method; type: physicochemical; settings: read-out: Kinetic_solubility
[3] = molecular target: Proteinase-activated receptor 2 (Homo sapiens) (UniProt P55085); assay: Antagonist activity at PAR2 in human HEK293 cells assessed as inhibition of trypsin-induced intracellular calcium flux at 10 uM pretreated for 15 mins followed by trypsin addition by Fluo-8 dye based fluorescence assay relative to control; type: functional, cell-based
[4] = Permeability from apical to basolateral side in human Caco2 cells at 5 uM after 90 mins; type: ADME, cell-based; settings: Caco-2, read-out: permeability
[5] = Permeability from basolateral to apical side in human Caco2 cells at 5 uM after 90 mins; type: ADME, cell-based; settings: Caco-2, read-out: permeability
[6] = molecular target: Amyloid-beta precursor protein (Homo sapiens, UniProt P05067); assay: Displacement of [125I]IMPY from fibrillar amyloid beta 42 (unknown origin) after 3 hrs
Amyloid-beta precursor protein, sequence (P05067 whole entry): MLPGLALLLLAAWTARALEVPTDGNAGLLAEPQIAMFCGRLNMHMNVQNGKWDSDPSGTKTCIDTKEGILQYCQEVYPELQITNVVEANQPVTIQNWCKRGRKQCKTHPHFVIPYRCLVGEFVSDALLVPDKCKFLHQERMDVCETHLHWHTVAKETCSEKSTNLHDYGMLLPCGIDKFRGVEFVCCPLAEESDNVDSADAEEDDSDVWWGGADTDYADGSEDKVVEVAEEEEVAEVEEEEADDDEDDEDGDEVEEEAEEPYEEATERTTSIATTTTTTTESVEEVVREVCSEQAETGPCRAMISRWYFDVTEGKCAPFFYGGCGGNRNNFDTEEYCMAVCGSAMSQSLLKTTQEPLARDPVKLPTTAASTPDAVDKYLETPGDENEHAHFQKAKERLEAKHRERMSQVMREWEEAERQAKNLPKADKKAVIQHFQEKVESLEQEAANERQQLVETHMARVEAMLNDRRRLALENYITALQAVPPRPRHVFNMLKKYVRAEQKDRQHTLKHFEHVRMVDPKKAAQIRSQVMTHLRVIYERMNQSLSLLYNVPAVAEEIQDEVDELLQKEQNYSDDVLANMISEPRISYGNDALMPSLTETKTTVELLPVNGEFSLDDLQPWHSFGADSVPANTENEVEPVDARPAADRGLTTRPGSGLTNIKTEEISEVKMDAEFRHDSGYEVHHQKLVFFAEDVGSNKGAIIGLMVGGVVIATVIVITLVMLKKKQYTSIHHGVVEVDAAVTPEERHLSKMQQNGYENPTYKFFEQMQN

[7] = molecular target: T1, Proteinase-activated receptor 2 (Homo sapiens, UniProt P55085); assay: Antagonist activity at PAR2 in human 1321N1 cells assessed as inhibition of trypsin-induced intracellular calcium flux pretreated for 60 mins followed by trypsin addition by Fluo-8 NW dye based FLIPR assay; type: functional, cell-based
T1 sequence (P55085 whole entry): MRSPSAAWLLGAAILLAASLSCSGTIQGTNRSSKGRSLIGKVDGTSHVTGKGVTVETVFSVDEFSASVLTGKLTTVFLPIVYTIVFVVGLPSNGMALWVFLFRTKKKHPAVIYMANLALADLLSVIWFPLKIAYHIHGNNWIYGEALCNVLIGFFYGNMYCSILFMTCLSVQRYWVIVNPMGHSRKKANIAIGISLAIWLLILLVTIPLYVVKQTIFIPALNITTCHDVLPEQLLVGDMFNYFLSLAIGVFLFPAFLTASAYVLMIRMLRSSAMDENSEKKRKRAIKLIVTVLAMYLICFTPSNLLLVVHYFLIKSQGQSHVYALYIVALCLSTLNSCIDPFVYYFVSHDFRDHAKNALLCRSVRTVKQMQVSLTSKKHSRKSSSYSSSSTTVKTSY

[8] = molecular target: Proteinase-activated receptor 2 (Homo sapiens) (UniProt P55085); assay: Antagonist activity at PAR2 in human HEK293 cells assessed as inhibition of trypsin-induced intracellular calcium flux at 30 uM pretreated for 15 mins followed by trypsin addition by Fluo-8 dye based fluorescence assay relative to control; type: functional, cell-based
[9] = molecular target: Proteinase-activated receptor 2 (Homo sapiens) (UniProt P55085); assay: Antagonist activity at PAR2 in human HEK293 cells assessed as trypsin-induced intracellular calcium flux at 10 uM pretreated for 15 mins followed by trypsin addition by Fluo-8 dye based fluorescence assay relative to control; type: functional, cell-based; parameters: scale not given: the % may be the effect or the level left
[10] = molecular target: Proteinase-activated receptor 2 (Homo sapiens) (UniProt P55085); assay: Antagonist activity at PAR2 in human HEK293 cells assessed as trypsin-induced intracellular calcium flux at 1 uM pretreated for 15 mins followed by trypsin addition by Fluo-8 dye based fluorescence assay relative to control; type: functional, cell-based; parameters: scale not given: the % may be the effect or the level left
[11] = molecular target: Proteinase-activated receptor 2 (Homo sapiens) (UniProt P55085); assay: Antagonist activity at PAR2 in human HEK293 cells assessed as trypsin-induced intracellular calcium flux at 3 uM pretreated for 15 mins followed by trypsin addition by Fluo-8 dye based fluorescence assay relative to control; type: functional, cell-based; parameters: scale not given: the % may be the effect or the level left
[12] = molecular target: Proteinase-activated receptor 2 (Homo sapiens) (UniProt P55085); assay: Antagonist activity at PAR2 in human HEK293 cells assessed as trypsin-induced intracellular calcium flux at 0.3 uM pretreated for 15 mins followed by trypsin addition by Fluo-8 dye based fluorescence assay relative to control; type: functional, cell-based; parameters: scale not given: the % may be the effect or the level left
[13] = molecular target: Proteinase-activated receptor 2 (Homo sapiens) (UniProt P55085); assay: Antagonist activity at PAR2 in human HEK293 cells assessed as trypsin-induced intracellular calcium flux at 0.01 uM pretreated for 15 mins followed by trypsin addition by Fluo-8 dye based fluorescence assay relative to control; type: functional, cell-based; parameters: scale not given: the % may be the effect or the level left
[14] = molecular target: Proteinase-activated receptor 2 (Homo sapiens) (UniProt P55085); assay: Antagonist activity at PAR2 in human HEK293 cells assessed as trypsin-induced intracellular calcium flux at 100 uM pretreated for 15 mins followed by trypsin addition by Fluo-8 dye based fluorescence assay relative to control; type: functional, cell-based; parameters: scale not given: the % may be the effect or the level left
[15] = molecular target: Proteinase-activated receptor 2 (Homo sapiens) (UniProt P55085); assay: Antagonist activity at PAR2 in human HEK293 cells assessed as trypsin-induced intracellular calcium flux at 0.1 uM pretreated for 15 mins followed by trypsin addition by Fluo-8 dye based fluorescence assay relative to control; type: functional, cell-based; parameters: scale not given: the % may be the effect or the level left
[16] = molecular target: T1, Proteinase-activated receptor 2; assay: Antagonist activity at PAR2 in human HEK293 cells assessed as inhibition of trypsin-induced intracellular calcium flux pretreated for 15 mins followed by trypsin addition by Fluo-8 dye based fluorescence assay; type: functional, cell-based

remaining at 0.5 h, 1 µM [1] | solubility kinetic [2] | Compound | IC50 (HepG2) | also measured
32% | 25 µM (≈ 8.84 µg/mL) | COc1ccc(CC[C@H](O)C[C@@H](O)c2cc(-c3ccccc3)on2)cc1 | > 100 µM | –
< 20% | 12 µM (≈ 4.6 µg/mL) | COc1ccc(CC[C@H](O)C[C@H](O)c2cc(-c3ccc(OC)cc3)on2)cc1 | > 100 µM | –
– | – | CC[C@H](C)[C@H](NC(=O)[C@H](CC1CCCCC1)NC(=O)c1ccno1)C(=O)N1CCC2(CCc3ccccc32)CC1 | – | inhibition [3]: 42%
21% | 3 µM (≈ 1.11 µg/mL) | COc1cc(/C=C/C(=O)CC(=O)/C=C/c2ccc(O)c(OC)c2)ccc1O [CURCUMIN] | 10 µM | Papp A→B at 1.5 h, 5 µM [4]: < 0.5 ×10⁻⁶ cm/s; Papp B→A at 1.5 h, 5 µM [5]: < 0.5 ×10⁻⁶ cm/s
< 20% | 12 µM (≈ 4.65 µg/mL) | COc1ccc(-c2cc([C@@H](O)C[C@@H](O)CCc3ccc(Cl)cc3)no2)cc1 | > 100 µM | –
33% | 25 µM (≈ 8.84 µg/mL) | COc1ccc(CC[C@H](O)C[C@H](O)c2cc(-c3ccccc3)on2)cc1 | > 100 µM | –
– | – | COc1cc(/C=C/c2cc(/C=C/c3ccc(O)c(OC)c3)on2)ccc1O | – | IC50 [6]: 0.138 µM
– | – | C[C@@H](C1CCCCC1)n1c(-c2cc3c(cc2Br)OCO3)nc2cc(C(=O)Nc3ccc(C#N)cc3)ccc21 | – | IC50 [7]: 6.6 µM
< 20% | 25 µM (≈ 8.84 µg/mL) | COc1cccc(CC[C@H](O)C[C@@H](O)c2cc(-c3ccccc3)on2)c1 | > 100 µM | –
73% | 25 µM (≈ 8.53 µg/mL) | O[C@@H](CCc1ccc(F)cc1)C[C@@H](O)c1cc(-c2ccccc2)on1 | > 100 µM | inhibition [8]: 70%; Papp A→B at 1.5 h, 5 µM [4]: 6.3 ×10⁻⁶ cm/s; Activity [9]: 65 to 70%; Activity [10]: 100%; Activity [11]: 100%; Papp B→A at 1.5 h, 5 µM [5]: 5 ×10⁻⁶ cm/s
– | – | CCCc1cc(F)ccc1[C@H](O)c1ncc[nH]1 | – | IC50 [7]: 4.2 µM
84% | 25 µM (≈ 8.53 µg/mL) | O[C@@H](CCc1ccc(F)cc1)C[C@H](O)c1cc(-c2ccccc2)on1 | > 100 µM | inhibition [8]: 80%; Papp A→B at 1.5 h, 5 µM [4]: 7.4 ×10⁻⁶ cm/s; Activity [9]: 43 to 48%; Activity [12]: 80 to 85%; Activity [10]: 74 to 78%; Activity [11]: 60 to 65%; Activity [13]: 95 to 100%; Activity [14]: 15 to 20%; Activity [15]: 90 to 95%; Papp B→A at 1.5 h, 5 µM [5]: 5.8 ×10⁻⁶ cm/s; IC50 [16]: 6 µM

Source: ChEMBL document CHEMBL4118211, “Isoxazole-tethered diarylheptanoid analogs: Discovery of a new drug-like PAR2 antagonist” (Bioorg Med Chem Lett, 2018)
